This is an account of results in patent US10131652B2, “Pyrimidinyloxy benzene derivatives as herbicides” (E. I. DU PONT DE NEMOURS AND COMPANY, priority 2014, dated 2018).

Type in all cases: in vivo
The subject of test [1] is wheat (Triticum aestivum). Briefly: Test B pre-/postemergence plant response. The text has this: (§1) Seeds of plant species selected from bamyardgrass (Echinochloa crus-galli), kochia (Kochia scoparia), ragweed (common ragweed, Ambrosia elatior), Italian ryegrass (Lolium multiflorum), large (Lg) crabgrass (Digitaria sanguinalis), giant foxtail (Setaria faberii), momingglory (Ipomoea spp.), pigweed (Amaranthus retroflexus), velvetleaf (Abutilon theophrasti), wheat (Triticum aestivum), and corn (Zea mays) were planted into a blend of loam soil and sand and treated preemergence with a directed soil spray using test chemicals formulated in a non-phytotoxic solvent mixture which included a surfactant. At the same time, plants selected from these crop and weed species and also blackgrass (Alopecurus myosuroides), and galium (catchweed bedstraw, Galium aparine) were planted in pots containing the same blend of loam soil and sand and treated with postemergence applications of test chemicals formulated in the same manner. Plants ranged in height from 2 to 10 cm and were in the one- to two-leaf stage for the postemergence treatment. Treated plants and untreated controls were maintained in a greenhouse for approximately 10 days, after which time all treated plants were compared to untreated controls and visually evaluated for injury. Plant response ratings, summarized in Table B, are based on a 0 to 100 scale where 0 is no effect and 100 is complete control. A dash (-) response means no test result.

For test [2], the system named is pigweed (Amaranthus retroflexus). Briefly: Test B pre-/postemergence plant response.
Description: as §1

Test [3] concerns barnyardgrass (Echinochloa crus-galli). Briefly: Test B pre-/postemergence plant response.
Description: as §1

The subject of a further test is corn (Zea mays). Briefly: Test B pre-/postemergence plant response.
Description: as §1

The test system of test [4] is velvetleaf (Abutilon theophrasti). As to the kind of experiment: Test B pre-/postemergence plant response. The settings on record: 1000 g ai/ha, 0 to 100 scale (0 no effect, 100 complete control).
Description: as §1

Test [5] relates to large (Lg) crabgrass (Digitaria sanguinalis). Briefly: Test B pre-/postemergence plant response. Conditions: 1000 g ai/ha, 0 to 100 scale (0 no effect, 100 complete control).
Description: as §1

For test [6], the system named is morningglory (Ipomoea spp.). Briefly: Test B pre-/postemergence plant response. The settings on record: 1000 g ai/ha, 0 to 100 scale (0 no effect, 100 complete control).
Description: as §1

Test [7] relates to giant foxtail (Setaria faberii). As to the kind of experiment: Test B pre-/postemergence plant response.
Description: as §1

Test [8] deals with galium (catchweed bedstraw, Galium aparine). As to the kind of experiment: Test B postemergence plant response. The source says: (§2) At the same time, plants selected from these crop and weed species and also blackgrass (Alopecurus myosuroides), and galium (catchweed bedstraw, Galium aparine) were planted in pots containing the same blend of loam soil and sand and treated with postemergence applications of test chemicals formulated in the same manner. Plants ranged in height from 2 to 10 cm and were in the one- to two-leaf stage for the postemergence treatment. Treated plants and untreated controls were maintained in a greenhouse for approximately 10 days, after which time all treated plants were compared to untreated controls and visually evaluated for injury. Plant response ratings, summarized in Table B, are based on a 0 to 100 scale where 0 is no effect and 100 is complete control. A dash (-) response means no test result.

Test [9] has as its system blackgrass (Alopecurus myosuroides). Briefly: Test B postemergence plant response.
Description: as §2

Test [10] concerns Italian ryegrass (Lolium multiflorum). As to the kind of experiment: Test B pre-/postemergence plant response.
Description: as §1

For test [11], the system named is ragweed (common ragweed, Ambrosia elatior). As to the kind of experiment: Test B pre-/postemergence plant response.
Description: as §1

A further test relates to kochia (Kochia scoparia). Briefly: Test B pre-/postemergence plant response.
Description: as §1

The mark [12] stands for this setting: Postemergence, 1000 g ai/ha, 0 to 100 scale (0 no effect, 100 complete control).
[13] abbreviates: Preemergence, 1000 g ai/ha, 0 to 100 scale (0 no effect, 100 complete control).
Where [14] appears, read: Postemergence, 500 g ai/ha, 0 to 100 scale (0 no effect, 100 complete control).
[15] abbreviates: Preemergence, 500 g ai/ha, 0 to 100 scale where 0 is no effect and 100 is complete control.
Setting [16] is: 31 g ai/ha, Postemergence, 0 to 100 scale, 0 no effect, 100 complete control.
Setting [17] is: 125 g ai/ha, postemergence, 0 to 100 scale, 0 no effect, 100 complete control.
The mark [18] stands for this setting: Preemergence, 31 g ai/ha, 0 to 100 scale (0 no effect, 100 complete control).
The mark [19] stands for this setting: Preemergence, 125 g ai/ha, 0 to 100 scale where 0 is no effect and 100 is complete control.

As to `CN(C)c1ccc(-c2ccccc2Oc2ncc(Cl)cn2)cn1` [Compound 2], the “Plant response rating, Wheat” value in test [1] (setting [12]) and in test [1] (setting [13]) was 0 throughout. Besides, the “Plant response rating, Pigweed” value came to 70 in [2] (setting [12]) and 100 in test [2] (setting [13]). For the same molecule, the “Plant response rating, Barnyardgrass” value in test [3] (setting [12]) and in test [3] (setting [13]) was 0 each time. The “Plant response rating, Corn” value in the test on corn (Zea mays) (setting [12]) and in the test with corn (Zea mays) (setting [13]) was 0 in each case. Besides, the “Plant response rating, Velvetleaf” value stood at 50 in [4] (Postemergence) and 20 in test [4] (Preemergence). Also, the results for the “Plant response rating, Crabgrass, Large” value in test [5] (Postemergence) and in [5] (Preemergence) were 0 and 10, respectively. For the same molecule, the results for the “Plant response rating, Morningglory” value in test [6] (Postemergence) and in test [6] (Preemergence) were 40 and 0, respectively. Further, the results for the “Plant response rating, Foxtail, Giant” value in test [7] (setting [12]) and in [7] (setting [13]) were 0 and 10, respectively.

With `ON=Cc1cc(-c2ccccc2Oc2ncc(Cl)cn2)no1` [Compound 37], in test [8] (setting [14]), the “Plant response rating, Galium” value is recorded as 0. Further, the “Plant response rating, Blackgrass” value in [9] (setting [14]) was 0. For the same molecule, the “Plant response rating, Ryegrass, Italian” value in [10] (setting [14]) and in test [10] (setting [15]) was 0 in each case. The “Plant response rating, Ragweed” value in [11] (setting [14]) and in test [11] (setting [15]) was 0 each time. Also, in test [1] (setting [14]), the “Plant response rating, Wheat” value amounted to 0. Besides, the “Plant response rating, Pigweed” value in test [2] (setting [14]) is 20; in test [2] (setting [15]), 40. Moreover, the “Plant response rating, Barnyardgrass” value in test [3] (setting [14]) and in test [3] (setting [15]) was 0 each time. Besides, the “Plant response rating, Corn” value in the test on corn (Zea mays) (setting [14]) is reported as 0. Further, the “Plant response rating, Kochia” value with kochia (Kochia scoparia) (setting [14]) and in the test with kochia (Kochia scoparia) (setting [15]) was 0 throughout. Moreover, the “Plant response rating, Foxtail, Giant” value in test [7] (setting [14]) is recorded as 10; in test [7] (setting [15]), 0.

As for `FC(F)=Cc1cc(-c2c(F)cccc2Oc2ncc(Cl)cn2)no1` [Compound 91], the “Plant response rating, Galium” value in test [8] (setting [16]) and in test [8] (setting [17]) was 0 each time. Moreover, the “Plant response rating, Blackgrass” value in test [9] (setting [16]) and in test [9] (setting [17]) was 0 in each case. Moreover, the “Plant response rating, Ryegrass, Italian” value in test [10] (setting [16]), in test [10] (setting [17]) and in test [10] (setting [19]) was 0 throughout. Further, the “Ryegrass, Italian plant response rating” value in test [10] (setting [18]) is 0. The “Plant response rating, Ragweed” value in [11] (setting [16]), in test [11] (setting [17]) and in test [11] (setting [19]) was 0 in each case. Moreover, the “Ragweed plant response rating” value in [11] (setting [18]) is listed as 0. Further, the “Plant response rating, Wheat” value in test [1] (setting [16]) and in [1] (setting [17]) was 0 in each case. The “Plant response rating, Pigweed” value in test [2] (setting [16]), in [2] (setting [17]) and in test [2] (setting [19]) was 0 each time. The “Pigweed plant response rating” value in test [2] (setting [18]) was found to be 0. Further, the “Plant response rating, Barnyardgrass” value in test [3] (setting [16]), in test [3] (setting [17]) and in [3] (setting [19]) was 0 in each case. Also, the “Barnyardgrass plant response rating” value in [3] (setting [18]) worked out at 0. In addition, the “Plant response rating, Corn” value in the test with corn (Zea mays) (setting [16]) and with corn (Zea mays) (setting [17]) was 0 in each case. The “Plant response rating, Kochia” value in the test with kochia (Kochia scoparia) (setting [16]), in the test on kochia (Kochia scoparia) (setting [17]) and in the test with kochia (Kochia scoparia) (setting [19]) was 0 each time. In addition, the “Kochia plant response rating” value in the test on kochia (Kochia scoparia) (setting [18]) is reported as 0. Moreover, the “Plant response rating, Foxtail, Giant” value in test [7] (setting [16]), in [7] (setting [17]) and in test [7] (setting [19]) was 0 throughout. Moreover, the “Foxtail, Giant plant response rating” value in [7] (setting [18]) was 0.

Turning to `CCOC(=O)c1cc(-c2ccccc2Oc2ncc(Cl)cn2)no1` [Compound 148], in test [8] (setting [12]), the “Plant response rating, Galium” value was 0. In addition, the “Plant response rating, Blackgrass” value in test [9] (setting [12]) is 10. Besides, the “Plant response rating, Ryegrass, Italian” value in test [10] (setting [12]) and in test [10] (setting [13]) was 0 each time. In addition, in [11] (setting [12]), the “Plant response rating, Ragweed” value is reported as 0. Further, the “Plant response rating, Wheat” value in [1] (setting [12]) was determined as 0. Besides, the “Plant response rating, Pigweed” value in test [2] (setting [12]) and in [2] (setting [13]) was 0 each time. Further, the “Plant response rating, Barnyardgrass” value came to 10 in [3] (setting [12]) and 0 in test [3] (setting [13]). Besides, the “Plant response rating, Corn” value in the test on corn (Zea mays) (setting [12]) is listed as 0. The “Plant response rating, Kochia” value with kochia (Kochia scoparia) (setting [12]) and in the test with kochia (Kochia scoparia) (setting [13]) was 0 each time. Further, the “Plant response rating, Foxtail, Giant” value in test [7] (setting [12]) is listed as 10; in test [7] (setting [13]), 0.

In the case of `Clc1cnc(Oc2ccccc2-c2ncns2)nc1` [Compound 172], in [8] (setting [12]), the “Plant response rating, Galium” value amounted to 10. Also, the “Plant response rating, Blackgrass” value in test [9] (setting [12]) amounted to 0. Besides, the “Plant response rating, Ryegrass, Italian” value in [10] (setting [12]) and in test [10] (setting [13]) was 0 each time. Moreover, the “Plant response rating, Ragweed” value in test [11] (setting [12]) was 10; in test [11] (setting [13]), 0. Moreover, the “Plant response rating, Wheat” value in [1] (setting [12]) turned out to be 0. Besides, the “Plant response rating, Pigweed” value in test [2] (setting [12]) is 80; in test [2] (setting [13]) it was 90. Besides, the entries for the “Plant response rating, Barnyardgrass” value in [3] (setting [12]) and in test [3] (setting [13]) were 10 and 0, respectively. For the same molecule, the “Plant response rating, Corn” value in the test on corn (Zea mays) (setting [12]) is 10. In addition, the “Plant response rating, Kochia” value worked out at 30 in the test with kochia (Kochia scoparia) (setting [12]) and 20 in the test on kochia (Kochia scoparia) (setting [13]). Besides, the results for the “Plant response rating, Foxtail, Giant” value in test [7] (setting [12]) and in [7] (setting [13]) were 10 and 30, respectively.

Turning to `O=Cc1cc(-c2c(Br)cccc2Oc2ncc(Cl)cn2)no1` [Compound 195], the “Plant response rating, Galium” value in [8] (setting [12]) was found to be 10. Also, in test [9] (setting [12]), the “Plant response rating, Blackgrass” value was found to be 0. The “Plant response rating, Ryegrass, Italian” value came out at 10 in test [10] (setting [12]) and 0 in [10] (setting [13]). For the same molecule, the “Plant response rating, Ragweed” value in test [11] (setting [12]) and in [11] (setting [13]) was 10 in each case. The “Plant response rating, Wheat” value in [1] (setting [12]) came out at 0. Also, the “Plant response rating, Pigweed” value in test [2] (setting [12]) is listed as 50; in [2] (setting [13]), 60. Moreover, the “Plant response rating, Barnyardgrass” value in [3] (setting [12]) turned out to be 10; in [3] (setting [13]), 40. The “Plant response rating, Corn” value in the test with corn (Zea mays) (setting [12]) came to 10. In addition, the “Plant response rating, Kochia” value in the test with kochia (Kochia scoparia) (setting [12]) worked out at 10; with kochia (Kochia scoparia) (setting [13]), 0. Besides, the “Plant response rating, Foxtail, Giant” value amounted to 10 in test [7] (setting [12]) and 30 in test [7] (setting [13]).

As to `COC(=O)c1cc(-c2ccccc2Oc2ncc(Cl)cn2)no1` [Compound 235], the “Plant response rating, Galium” value in test [8] (setting [12]) came to 0. In addition, the “Plant response rating, Blackgrass” value in [9] (setting [12]) is given as 0. Moreover, the “Plant response rating, Ryegrass, Italian” value in [10] (setting [12]) and in [10] (setting [13]) was 0 in each case. For the same molecule, the “Plant response rating, Ragweed” value in [11] (setting [12]) and in test [11] (setting [13]) was 0 in each case. In addition, the “Plant response rating, Wheat” value in [1] (setting [12]) was 0. Further, the “Plant response rating, Pigweed” value in [2] (setting [12]) and in test [2] (setting [13]) was 0 each time. For the same molecule, the “Plant response rating, Barnyardgrass” value in test [3] (setting [12]) and in test [3] (setting [13]) was 0 each time. Also, in the test on corn (Zea mays) (setting [12]), the “Plant response rating, Corn” value came to 0. The “Plant response rating, Kochia” value in the test on kochia (Kochia scoparia) (setting [12]) and in the test on kochia (Kochia scoparia) (setting [13]) was 0 throughout. For the same molecule, the “Plant response rating, Foxtail, Giant” value in test [7] (setting [12]) and in test [7] (setting [13]) was 0 each time.
